US20180291070A1, “PEPTIDES, AND USES THEREOF” (priority 2015, published 2018)

Tested on: GLUT4
Assay: GLUT4myc translocation in L6 myotubes
Type: cell-based
Settings: 100 nM, 30 mins
Description: We determined the effect of six synthetic peptides (SP1-6) and four peptide compositions on in vitro GLUT4 translocation using the L6 rat skeletal muscle cell line. A clone of the L6 cell line containing overexpression of GLUT4 tagged with a c-myc epitope (courtesy of Prof. Amira Klip, Hospital for Sick Children, Toronto) was used to investigate the efficacy of each synthetic peptide and peptide composition for effects on GLUT4 translocation in a dose-response design.
L6-GLUT4myc cells were grown in 10% FBS and 2 μg/ml blasticidin. Cells were grown for 48-72 hours before being seeded in 24-well plates at 15,000 cells per well in 2% FBS and allowed to differentiate for 6 to 8 days prior to experimentation.
L6-GLUT4myc cells were serum-starved for three hours prior to incubation with 100 nM of insulin for 30 mins, or 200, 20, 2.0 and 0.2 μM of SP, and 2, 1, 0.5 and 0.25 mg/ml of peptide composition for 3 hours respectively. A 3 hour incubation period was selected based on previous findings identifying that incubation with branch chain amino acid containing di-peptides for 3 hours increases glucose uptake in L6 myotubes 1. Treatments were staggered in order to determine GLUT4myc translocation at the same time point.
The quantity of myc-tagged GLUT4 at the cell surface was measured by antibody-coupled colorimetric assay. Briefly, after incubation with either insulin for 30 mins or synthetic peptide or peptide composition for 3 hours respectively, L6-GLUT4myc cells were fixed via incubation with 3% paraformaldehyde (PFA). A 0.1 M glycine solution was then added to quench PFA and cells were blocked with 5% goat serum. The myotube monolayer was exposed to anti-myc antibody and then incubated with peroxidase conjugated donkey anti-mouse IgG. 1 mL of o-phenylenediamine dihydrochloride (OPD) reagent was added to each well and this reaction was stopped by adding […] of 3 M HCL. To determine GLUT4 translocation to cell surface, a measured aliquot of each condition was determined spectrophotometrically on a plate reader using absorbance at 492 nm.
In addition to an untreated control, 100 nM insulin was utilised to stimulate a maximal GLUT4 translocation response i.e. a positive control in each experiment. […] Treatments were staggered so that all conditions (untreated, insulin and sample) were processed at the same time-point.

insulin [reference compound]
average increase in cell surface GLUT4 translocation compared to untreated control: 1.72 fold
